In data set [1] the test system is Mycobacterium avium complex CIT19/06. Put plainly: In vitro antimycobacterial evaluation (alamarBlue, 96 well plate). The data set is classed as cell-based. The following applies: 120 h, Middlebrook broth, 37 °C 5 days, read-out: MIC/IC90 M. avium complex. Background: Alamar Blue is a resazurin reagent that responds to reducing activity.
Data set [2] is described as follows: Lipophilicity determination by RP-HPLC (capacity factor k / log k). The data set is classed as physicochemical. The following applies: C18 column, isocratic MeOH 55.0% / H2O 45.0%. The source says: A Waters Alliance 2695 XE HPLC separation module and Waters Photodiode Array Detector 2996 (Waters Corp., Milford, MA, USA) were used. A Symmetry® C18 5 μm, 4.6 × 250 mm, Part No. WAT054275, (Waters Corp., Milford, MA, USA) chromatographic column was used. The HPLC separation process was monitored by Millennium32® Chromatography Manager Software, Waters 2004 (Waters Corp., Milford, MA, USA). A mixture of MeOH p.a. (55.0%) and H2O-HPLC– Mili-Q Grade (45.0%) was used as a mobile phase. The total flow of the column was 0.9 mL/min, injection 30 μL, column temperature 30 °C and sample temperature 10 °C. The detection wavelength 210 nm was chosen. The KI methanolic solution was used for the dead time (tD) determination. Retention times (tR) were measured in minutes.
The capacity factors k were calculated using the Millennium32® Chromatography Manager Software according to formula k = (tR - tD)/tD, where tR is the retention time of the solute, whereas tD denotes the dead time obtained via an unretained analyte. Log k, calculated from the capacity factor k, is used as the lipophilicity index converted to log P scale.

The subject of another data set is M. smegmatis MC2155. The data set can be described thus: In vitro antimycobacterial evaluation (alamarBlue, 96 well plate). The following applies: Mycolicibacterium smegmatis, Middlebrook broth, 37 °C overnight, read-out: MIC/IC90 M. smegmatis. The data set is classed as cell-based.
The next data set relates to M. kansasii CIT11/06. The description is as above. The data set is classed as cell-based. The following applies: Mycobacterium kansasii, CIT11/06, 120 h, Middlebrook broth, 37 °C 5 days, read-out: MIC/IC90 M. kansasii.
In a further data set the test system is M. absessus CIT21/06. The data set is described as above. The following applies: Middlebrook broth, 37 °C overnight, read-out: MIC/IC90 M. absessus. The data set is classed as cell-based.
The subject of data set [3] is Aspergillus fumigatus 231. The data set can be described thus: In vitro antifungal broth microdilution test. The data set is classed as cell-based. The following applies: Aspergillus fumigatus, 231, 35 °C, RPMI 1640 pH 7.0, CLSI M38-A (IC50 value). (In general: In broth dilution the organism is exposed to a series of concentrations in liquid medium.)
The test system of another data set is Candida tropicalis 156. The data set can be described thus: In vitro antifungal broth microdilution test. The data set is classed as cell-based. The following applies: Candida tropicalis, 156, 35 °C, RPMI 1640 pH 7.0, CLSI M27-A2 (IC80 value).
The subject of data set [4] is Trichosporon beigelii 1188. The data set can be described thus: In vitro antifungal broth microdilution test. The data set is classed as cell-based. The following applies: Trichosporon beigelii, 1188, 35 °C, RPMI 1640 pH 7.0, CLSI M27-A2 (IC80 value), read-out: MIC TB. The procedure: Fluconazole (FLU) was used as the standard of a clinically used antimycotic drug. The procedure was performed with twofold dilution of the compounds in RPMI 1640 (Sevapharma a.s., Prague, Czech Republic) buffered to pH 7.0 with 0.165 mol of 3-morpholino-propane-1-sulfonic acid (MOPS, Sigma, Germany). The final concentrations of the compounds ranged from 500 to 0.975 μmol/L. Drug–free controls were included. The MIC determination was performed according to the CLSI (formerly NCCLS) reference protocol M27-A2 for yeasts (IC80 value) and M38-A for moulds (IC50 value). […] The values of MICs were determined after 24 and 48 h of static incubation at 35 °C. For T. mentagrophytes, the final MICs were determined after 72 and 120 h of incubation.

A further data set has as its system Candida krusei ATCC 6258. Put plainly: In vitro antifungal broth microdilution test. The following applies: Pichia kudriavzevii, ATCC6258, 35 °C, RPMI 1640 pH 7.0, CLSI M27-A2 (IC80 value). The data set is classed as cell-based.
A further data set deals with Candida glabrata 20/I. Put plainly: In vitro antifungal broth microdilution test. The data set is classed as cell-based. The following applies: Nakaseomyces glabratus, 20/I, 35 °C, RPMI 1640 pH 7.0, CLSI M27-A2 (IC80 value).
Data set [5] deals with Trichophyton mentagrophytes 445. The data set can be described thus: In vitro antifungal broth microdilution test. The data set is classed as cell-based.
In data set [6] the test system is photosynthetic electron transport (PET) in spinach chloroplasts. Put plainly: Inhibition of photosynthetic electron transport (PET) in spinach chloroplasts, DCPIP photoreduction. The data set is classed as biochemical, Spinacia oleracea L. The following applies: DCPIP as electron acceptor, phosphate buffer pH 7.2, read-out: PET reduction IC50. How it is done: Chloroplasts were prepared from spinach (Spinacia oleracea L.) according to Masarovicova and Kralova. The inhibition of photosynthetic electron transport (PET) in spinach chloroplasts was determined spectrophotometrically (Genesys 6, Thermo Scientific, USA) using an artificial electron acceptor 2,6-dichlorophenol-indophenol (DCIPP) according to Kralova et al. and the rate of photosynthetic electron transport was monitored as a photoreduction of DCPIP. The measurements were carried out in phosphate buffer (0.02 mol/L, pH 7.2) containing sucrose (0.4 mol/L), MgCl2 (0.005 mol/L) and NaCl (0.015 mol/L). The chlorophyll content was 30 mg/L in these experiments and the samples were irradiated (~100 W/m^2) from 10 cm distance with a halogen lamp (250 W) using a 4 cm water filter to prevent warming of the samples (suspension temperature 22 °C). The studied compounds were dissolved in DMSO due to their limited water solubility. […] The inhibitory efficiency of the studied compounds was expressed by IC50 values, i.e., by molar concentration of the compounds causing 50% decrease in the oxygen evolution rate relative to the untreated control.

Data set [7] has as its system Candida albicans ATCC 44859. The data set can be described thus: In vitro antifungal broth microdilution test. The data set is classed as cell-based. The following applies: Candida albicans, ATCC44859, 35 °C, RPMI 1640 pH 7.0, CLSI M27-A2 (IC80 value).
In a further data set the test system is Absidia corymbifera 272. The data set can be described thus: In vitro antifungal broth microdilution test. The data set is classed as cell-based. The following applies: Lichtheimia corymbifera, 272, 35 °C, RPMI 1640 pH 7.0, CLSI M38-A (IC50 value).
[8] abbreviates: Trichophyton mentagrophytes, 445, 120 h, pH 7.
Where [9] appears, read: Trichophyton mentagrophytes, 445, 72h, RPMI 1640 pH 7.0, CLSI M38-A (IC50 value).

Structures are written as SMILES. ≈ marks a conversion by molar mass, not a printed value. Like-named read-outs stand apart in the source and are kept apart here.

For the compound `Oc1ccc(C=Cc2ccc3c(Cl)cc(Cl)c(O)c3n2)c(O)c1` [Compound 11, 5,7-Dichloro-2-[2-(2,4-dihydroxyphenyl)vinyl]quinolin-8-ol], the MIC was above 100 µg/mL in data set [1], 100 µg/mL (≈ 287 µM) with M. smegmatis MC2155, above 100 µg/mL in the data set on M. kansasii CIT11/06 and above 100 µg/mL in the data set with M. absessus CIT21/06. In addition, the log k in data set [2] amounted to 1.5858.

`NNC(=O)c1ccncc1` [INH, isoniazid, reference compound]: the MIC in data set [1] was below 10 µg/mL; in the data set on M. smegmatis MC2155, 39 µg/mL (≈ 284 µM); in the data set with M. kansasii CIT11/06, below 10 µg/mL; with M. absessus CIT21/06, above 100 µg/mL.

With `CC(=O)Oc1ccc(O)c(C=Cc2ccc3c(Cl)cc(Cl)c(O)c3n2)c1` [Compound 13, 5,7-Dichloro-2-[2-(2-hydroxy-5-acetoxyphenyl)vinyl]quinolin-8-ol], the MIC is above 300 µg/mL in [1], 100 µg/mL (≈ 256 µM) with M. smegmatis MC2155, above 300 µg/mL in the data set with M. kansasii CIT11/06 and above 300 µg/mL in the data set with M. absessus CIT21/06. In addition, the log k in [2] was determined as 1.5864.

Take `Oc1cc(O)cc(C=Cc2ccc3c(Cl)cc(Cl)c(O)c3n2)c1` [Compound 12, 5,7-Dichloro-2-[2-(3,5-dihydroxyphenyl)vinyl]quinolin-8-ol]: the MIC in [1] was above 300 µg/mL; in data set [3] (24h), 125 µM (≈ 43.5 µg/mL); in [3] (48h), 125 µM (≈ 43.5 µg/mL); in the data set on Candida tropicalis 156 (24h), above 125 µM; with Candida tropicalis 156 (48h) it was above 125 µM; in data set [4] (24h), above 125 µM. Moreover, the MIC in [4] (48h) is above 125 µM; with Candida krusei ATCC 6258 (24h) it was above 125 µM; against Candida krusei ATCC 6258 (48h) it was above 125 µM; with M. smegmatis MC2155 it was above 100 µg/mL; in the data set on Candida glabrata 20/I (24h), above 125 µM; with Candida glabrata 20/I (48h), above 125 µM. In addition, the MIC in data set [5] (setting [8]) is 15.6 µM (≈ 5.44 µg/mL); in data set [5] (setting [9]) it was 15.6 µM (≈ 5.44 µg/mL); in the data set with M. kansasii CIT11/06, above 300 µg/mL; with M. absessus CIT21/06, above 300 µg/mL; in data set [7] (24h), above 125 µM; in data set [7] (48h), above 125 µM. Further, the MIC against Absidia corymbifera 272 (24h) and in the data set on Absidia corymbifera 272 (48h) was 62.5 µM (≈ 21.8 µg/mL) each time. The log k in data set [2] is listed as 1.5867. Also, the IC50 (commonly the concentration that inhibits the measured activity by half) in [6] worked out at 341 µM.

In the case of `CC(=O)Nc1ccc2cccc(OC(C)=O)c2n1` [Compound 8, 2-Acetylaminoquinolin-8-yl acetate], the MIC in [3] (24h) was determined as 62.5 µM; in data set [3] (48h), 62.5 µM; in the data set on Candida tropicalis 156 (24h), 31.2 µM; in the data set on Candida tropicalis 156 (48h), 31.2 µM; in data set [4] (24h) it was 62.5 µM; in data set [4] (48h) it was 125 µM. In addition, the MIC was 62.5 µM in the data set on Candida krusei ATCC 6258 (24h); 62.5 µM in the data set with Candida krusei ATCC 6258 (48h); 31.2 µM against Candida glabrata 20/I (24h); 62.5 µM with Candida glabrata 20/I (48h); 62.5 µM in data set [5] (setting [8]); 62.5 µM in data set [5] (setting [9]). Also, the MIC in [7] (24h) was determined as 15.6 µM; in data set [7] (48h), 62.5 µM; against Absidia corymbifera 272 (24h), 62.5 µM; in the data set with Absidia corymbifera 272 (48h), 62.5 µM. Also, the log k in data set [2] worked out at 0.3583. The IC50 in data set [6] was 306 µM.

Turning to `NC(=O)c1cnccn1` [PZA, pyrazinamide, reference compound], the MIC (in data set [1]; in the data set with M. smegmatis MC2155; in the data set with M. kansasii CIT11/06; in the data set on M. absessus CIT21/06) was above 100 µg/mL throughout.

Turning to `O=[N+]([O-])c1ccc(O)c2ncccc12` [Compound 1, 5-Nitroquinolin-8-ol], the MIC (in data set [3] (24h); in data set [3] (48h); against Candida tropicalis 156 (24h); in the data set on Candida tropicalis 156 (48h); in [4] (24h); in data set [4] (48h)) was above 500 µM each time. Moreover, the MIC (in the data set with Candida krusei ATCC 6258 (24h); against Candida krusei ATCC 6258 (48h); in the data set with Candida glabrata 20/I (24h); in the data set with Candida glabrata 20/I (48h); in data set [5] (setting [8]); in data set [5] (setting [9])) was above 500 µM each time. The MIC (in data set [7] (24h); in data set [7] (48h); against Absidia corymbifera 272 (24h); in the data set with Absidia corymbifera 272 (48h)) was above 500 µM throughout. This compound also registered a log k in data set [2] of 0.5695. For the same compound, in [6], the IC50 was determined as 78 µM.

In the case of `O=S(=O)(NCCCCc1ccccc1)c1ccc(O)c2ncccc12` [Compound 7, 8-Hydroxyquinoline-5-sulfonic acid (4-phenylbutyl)amide], the MIC (in data set [3] (24h); in data set [3] (48h); in the data set on Candida tropicalis 156 (24h); with Candida tropicalis 156 (48h); in data set [4] (24h); in data set [4] (48h)) was above 125 µM throughout. The MIC (with Candida krusei ATCC 6258 (24h); with Candida krusei ATCC 6258 (48h); with Candida glabrata 20/I (24h); in the data set on Candida glabrata 20/I (48h); in data set [5] (setting [8]); in data set [5] (setting [9])) was above 125 µM throughout. For the same compound, the MIC (in data set [7] (24h); in [7] (48h); with Absidia corymbifera 272 (24h); in the data set with Absidia corymbifera 272 (48h)) was above 125 µM in each case. This compound also gave a log k in data set [2] of 0.3902. The IC50 in data set [6] was 616 µM.

The values are drawn from paper PMC6256987, “Investigating the Activity Spectrum for Ring-Substituted 8-Hydroxyquinolines” (Molecules, 2010).
